From patent US8877733B2, “1′-substituted pyrimidine N-nucleoside analogs for antiviral treatment” (Gilead Sciences, Inc., priority 2011, dated 2014)
Read-outs that look alike come from different tables or passages of the source. Values belong to the compound of their own block, whether it stands above or below them.

Columns and labels:
[1] = system: mitochondrial protein levels of Complexes II and IV; test: Mitochondrial Biogenesis Assay after 5-day treatment in PC-3 cells; assay type: cell-based; details: human
Procedure: (§1) Three-fold serial dilutions of compounds were prepared in duplicate in 96-well plates starting at a concentration close to the CC50 value of the compound after 5-day treatment. For compounds with CC50≧100 μM, the starting concentration was 100 μM. PC-3 cells were plated at a density of 2.5×10^3 cells per well in a final assay volume of 100 μL per well with a constant amount of DMSO equal to 0.5%. After 5-day incubation, the cells were analyzed with the MitoSciences MitoBiogenesis™ In-Cell ELISA Kit (catalog #MS642), which uses quantitative immunocytochemistry to measure protein levels of Complexes II and IV in cultured cells. Cells were fixed in a 96-well plate and target proteins were detected with highly-specific, well-characterized monoclonal antibodies. The protein levels were quantified with IRDyee-labeled Secondary Antibodies. IR imaging and quantitation was performed using a LI-COR® Odyssey instrument. All ratios were expressed as a percentage of the 0.5% DMSO control. In cases where cell viability was severely affected, the data for mitochondrial biogenesis was not included for analysis due to significant errors associated with low signals. Chloramphenicol was used as the positive control for the assay.

RSV strain A2 = test: RSV-induced cytopathic effect in Hep2 cells, 384 well method; assay type: cell-based; details: human respiratory syncytial virus, HEp-2, 120 h
Procedure: Antiviral activity against RSV is determined using an in vitro cytoprotection assay in Hep2 cells. […] The method used is similar to methods previously described in published literature (Chapman et al., Antimicrob Agents Chemother. 2007, 51(9):3346-53.)
Compounds were also tested for antiviral activity against RSV in Hep2 cells using a 384 well format. Compounds were diluted in DMSO using a 10-step serial dilution in 3-fold increments via automation in 4 adjacent replicates each. Eight compounds were tested per dilution plate. 0.4 uL of diluted compounds were then stamped via Biomek into 384-well plates (Nunc 142761 or 164730 w/lid 264616) containing 20 μL of media (Mediatech Inc. MEM supplemented with Glutamine, 10% FBS and Pen/Strep). DMSO and a suitable positive control compound, such as 80 μM GS-329467 or 10 μM 427346 was used for the 100% and 0% cell killing controls, respectively.
Hep2 cells (1.0×10^5 cells/mil) were prepared as above in batch to at least 40 mls excess of the number of sample plates (8 mls cell mix per plate) and infected with vendor supplied (ABI) RSV strain A2 to arrive at an MOI of 1:1000 (virus:cell #) or 1:3000 (vol virus: cell vol). Immediately after addition of virus, the RSV infected Hep2 cell suspension was added to each stamped 384-well plate at 20 μl per well using a uFlow dispenser, giving a final volume of 40 μL/well, each with 2000 infected cells. The plates were then incubated for 5 days at 37° C. and 5% CO2. Following incubation, the plates were equilibrated to room temperature in a biosafety cabinet hood for 1.5 hrs and 40 μL of Cell-Titer Glo viability reagent (Promega) was added to each well via uFlow. Following a10-20 minute incubation, the plates were read using an EnVision or Victor Luminescence plate reader (Perkin-Elmer). The data was then uploaded and analyzed on the Bioinformatics portal under the RSV Cell Infectivity and 8-plate EC50-Hep2-384 or 8-plate EC50-Hep2-Envision protocols.

HCV Δ21 NS5b polymerase = HCV Δ21 NS5b polymerase (Hepatitis C virus genotype 1b (isolate Con1) (HCV), UniProt Q9WMX2); test: HCV IC50 determination, NS5b polymerase assay; assay type: biochemical; details: wild type or S282T mutant enzyme not specified, nucleoside triphosphates
Procedure: Assay Protocol: Either wild type or S282T (Migliaccio, et al., J. Biol. Chem. 2003, 49164-49170; Klumpp, et al., J. Biol. Chem. 2006, 3793-3799) mutant polymerase enzyme was used in this assay. NS5b polymerase assay (40 μL) was assembled by adding 28 μL polymerase mixture (final concentration: 50 mM Tris-HCl at pH 7.5, 10 mM KCl, 5 mM MgCl2, 1 mM DTT, 10 mM EDTA, 4 ng/μL of RNA template, and 75 nM HCV Δ21 NS5b polymerase) to assay plates followed by 4 μL of compound dilution. The polymerase and compound were pre-incubated at 35° C. for 10 minute before the addition of 8 μL of nucleotide substrate mixture (33P-[…] competing nucleotide at KM and 0.5 mM of the remaining three nucleotides). The assay plates were covered and incubated at 35° C. for 90 min. Reactions were then filtered through 96-well DEAE-81 filter plates via vacuum. The filter plates were then washed under vacuum with multiple volumes of 0.125 M NaHPO4, water, and ethanol to remove unincorporated label. Plates were then counted on TopCount to assess the level of product synthesis over background controls. The IC50 value is determined using Prism fitting program.

HCV replicon cells = test: HCV EC50 determination, replicon cells luciferase assay; assay type: cell-based; details: Hepatitis C virus
Procedure: Replicon cells were seeded in 96-well plates at a density of 8×10^3 cells per well in 100 μL of culture medium, excluding Geneticin. Compound was serially diluted in 100% DMSO and then added to the cells at a 1:200 dilution, achieving a final concentration of 0.5% DMSO and a total volume of 200 μL. Plates were incubated at 37° C. for 3 days, after which culture medium was removed and cells were lysed in lysis buffer provided by Promega's luciferase assay system. Following the manufacturer's instruction, 100 μL of luciferase substrate was added to the lysed cells and luciferase activity was measured in a TopCount luminometer.

[2] = system: protein levels of Complexes II and IV in PC-3 cells; test: Mitochondrial Biogenesis Assay after 5-day treatment in PC-3 cells; assay type: cell-based; details: PC-3 cells, 5-day treatment; maximum concentration tested 100 μM
Procedure: as §1

[3] = Hep2 cells, RSV A2, 5 days, Cell-Titer Glo, 384 well format, read-out: EC50

SMILES: O=C(N[C@H](CO)[C@H](O)c1ccc([N+](=O)[O-])cc1)C(Cl)Cl [Chloramphenicol, reference compound]
CC50 at 5 days [1]: 2.5 µM

SMILES: C[C@@]1(O)[C@H](O)[C@@H](COP(=O)(O)OP(=O)(O)OP(=O)(O)O)O[C@@]1(C#N)n1ccc(=O)[nH]c1=O [Compound 27]
IC50 (HCV Δ21 NS5b polymerase): 27 µM

SMILES: C[C@@]1(O)[C@H](O)[C@@H](COP(=O)(O)OP(=O)(O)OP(=O)(O)O)O[C@@]1(C#N)n1ccc(N)nc1=O [Compound 28]
IC50 (HCV Δ21 NS5b polymerase): 18 µM

SMILES: CC(C)OC(=O)[C@H](C)NP(=O)(OC[C@H]1O[C@@](C#N)(n2ccc(=O)[nH]c2=O)[C@](C)(O)[C@@H]1O)Oc1ccccc1 (stereo partly drawn) [Compound 29]
EC50 (HCV replicon cells; 72 h): 8.2 µM

SMILES: CC(C)OC(=O)[C@H](C)N[P@](=O)(OC[C@H]1O[C@@](C#N)(n2ccc(N)nc2=O)[C@](C)(O)[C@@H]1O)Oc1ccccc1 [Compound 30]
EC50 (HCV replicon cells; 72 h): 2.6 µM | EC50 (HCV replicon cells; read-out: EC50 (antiviral activity)): 2.6 µM | EC50 (HCV replicon cells; read-out: HCV EC50): 2.6 µM | CC50 at 5 days ([1]; mitochondrial toxicity, PC-3 cells, 5-day treatment, maximum concentration tested 100 μM, read-out: CC50): > 100 µM | 50% inhibition of mitochondrial protein levels [2]: > 100 µM | EC50 (RSV strain A2): 200 µM

SMILES: CC(C)OC(=O)[C@H](C)N[P@](=O)(OC[C@H]1O[C@@](C#N)(n2ccc(N)nc2=O)[C@](C)(O)[C@@H]1OC(=O)C(C)C)Oc1ccccc1 [Compound 35]
EC50 (RSV strain A2): 200 µM

SMILES: C[C@@]1(O)[C@H](O)[C@@H](CO)O[C@H]1n1ccc(N)nc1=O [Compound A, reference compound]
EC50 (HCV replicon cells; HCV replicon, read-out: EC50 (antiviral activity)): 2.5 µM | EC50 (HCV replicon cells; replicon, comparison table R6=H vs R6=CN, read-out: HCV EC50): 2.5 µM | CC50 at 5 days [1]: 43 µM

The next lines start with the values.

EC50 (RSV strain A2; [3]): 10.9 µM
SMILES: N#C[C@@]1(n2ccc(=O)[nH]c2=O)O[C@H](CO)[C@@H](O)[C@H]1O [Compound 3]

EC50 (RSV strain A2; [3]): 11.3 µM
SMILES: N#C[C@@]1(n2ccc(N)nc2=O)O[C@H](CO)[C@@H](O)[C@H]1O [Compound 4]

EC50 (RSV strain A2; [3]): 200 µM
SMILES: C[C@@H](O)[C@H]1O[C@@](C#N)(n2ccc(=O)[nH]c2=O)[C@@H](O)[C@@H]1O [Compound 10]

EC50 (RSV strain A2; [3]): 200 µM
SMILES: C[C@@H](O)[C@H]1O[C@@](C#N)(n2ccc(N)nc2=O)[C@@H](O)[C@@H]1O [Compound 11]

EC50 (RSV strain A2; [3]): 200 µM
SMILES: CO[C@@H]1[C@H](O)[C@@H](CO)O[C@@]1(C#N)n1ccc(=O)[nH]c1=O [Compound 12]

EC50 (RSV strain A2; [3]): 200 µM
SMILES: CO[C@@H]1[C@H](O)[C@@H](CO)O[C@@]1(C#N)n1ccc(N)nc1=O [Compound 13]

EC50 (RSV strain A2; [3]): 200 µM
SMILES: C[C@H]1[C@H](O)[C@@H](CO)O[C@@]1(C#N)n1ccc(=O)[nH]c1=O [Compound 15]
